Assay results: patent US8841125B2, “Cancer tissue-derived cell mass and a process for preparing same” (Renaissance Energy Investment Co., Ltd., priority 2009, dated 2014)

Test system: cell mass derived from the cancer tissue (surgical specimens of human colon cancer, Example 2)
Assay: Drug sensitivity test with cell masses embedded in collagen gel
Assay type: cell-based
Conditions: 5-FU at 0.01, 0.1, 1, 10 and 100 μg/ml; day 8 vs day 0 of culture; FIG. 4
Procedure: Using 5-FU which is known to inhibit DNA synthesis by binding to a thymidylic acid synthetase involved in the metabolism process necessary for DNA synthesis, a drug sensitivity test on a sample of Example 2 was carried out. The test was carried out by embedding the cell masses (×10 each) derived from the cancer tissue in a collagen gel (CellMatrix type IA (Nitta Gelatin Inc.):5×DMEM (Gibco; 12100-038):buffer solution for gel reconstruction (50 mM NaOH, 260 mM NaHCO3, 200 mM HEPES)=7:2:1), and culturing in 1 cc of STEMPRO serum-free medium (Gibco) for human ES cells in an incubator under the culture conditions of 37° C. and 5% CO2. In addition, 5-FU was applied at a concentration of 0.01 μg/ml, 0.1 μg/ml, 1 μg/ml, 10 μg/ml, and 100 μg/ml, and the states of the cells on days 0 and 8 after culture were compared for evaluation. An increasing rate of the area of the cell mass derived from the cancer tissue was expressed relative to 1 of an increasing rate of the area of the cell mass in the culture without application of a drug.

For `O=c1[nH]cc(F)c(=O)[nH]1` [5-FU], the “proliferation of the cancer cell (increasing rate of the area of the cell mass relative to 1 for culture without drug)” value was “concentration-dependently suppressed”.
